Experiment [1] concerns the target T1, GABABR1a/GABABR2 heterodimer (Homo sapiens, UniProt O75899+Q9UBS5).
T1 construct: expressed in transfected cells; membrane preparation
The experiment in a line: GTPγS35 radioligand filtration-binding assay for determination of agonist potency. To be noted: membranes of CHO K1 Flp-In cells expressing GABABR1a/GABABR2; 30° C., 1 hour. The format is biochemical. The procedure: (§1) The potency and efficacy of the compounds acting as agonists at the GABAB receptor was also determined in a automated GTPγS^35 radioligand filtration-binding assay.
(§2) The GABAB receptor is a G-protein coupled receptor. Binding of a ligand activates the receptor leading to recruitment of G-protein and a substitution of the G-protein bound GDP to GTP. The G-protein becomes active. The G-protein is inactivated by hydrolysis of GTP to GDP. G-proteins are membrane bound and therefore present in membrane preparations.
(§3) In the GTPγS^35 assay, GTP is not present but instead GTPγS^35 where one of the phosphate groups are substituted to a sulphur group which cannot be hydrolysed. Upon activation of the receptor, radiolabelled GTPγS^35 replaces the GDP. The complex cannot be inactivated and the radiolabelled complex is accumulating. At the end of the assay, the reaction mixture is filtered through a membrane-binding filter. Excess GTPγS^35 is removed by washing and the membrane bound S^35, which correlates to the degree of receptor activation, is measured with a β-Liquid Scintillation Counter.
The human GABABR1a was subcloned into pIRESneo3 (Clontech) using GABABR1a construct as a template (refseqN NM001470). GABABR2 was subcloned into pcDNA5/FRT (Invitrogen) using GABABR2 construct as a template (refseqN NM005458). The Kozak sequence GCCACC was introduced before the start codon in both constructs.
For generation of stable cell lines, CHO K1 Flp-In cells (Invitrogen) were grown in DMEM/F12 1:1 media supplemented with 10% FBS at 37° C. in a humidified CO2-incubator. The cells were detached with Accutase and 1.5 million cells were seeded into T75 flasks. After 24 h, transfection of the cells were performed with the GABABR2 construct. For generation of cell lines expressing GABABR2, GABABR2 plasmid (1 μg) and pOG44 from Invitrogen (9 μg) were mixed with 30 μl Lipofectamine 2000 in 600 μl OptiMEM for 20 minutes. The cells were exposed to transfection medium for 5 hours and was then replaced with culture medium. After 2 days 0.5 mg/ml Hygromycin were added to culture medium. The cells were cultured for an additional 10 days to establish a stable cell mix expressing GABABR2. For generation of a cell line expressing the GABABR1a/GABABR2 hetrodimer, GABABR1a plasmid DNA (8 μg) and Lipofectamine (30 μl) were mixed in 600 μl OptiMEM and incubated for 20 minutes before added to CHO-Flp-In cells expressing GABABR2. After 2 days additional selection agent was added (0.8 mg/ml Geneticin). The cells were cultured for another 10 days to generate a stable mixed population expressing the GABABR1a/GABABR2 heterodimer. The cell line was analyzed by GTPγS^35 assay with GABA as agonist.
GTPγS^35 radioligand filtration-binding assays were performed using an automated workstation at 30° C. for 1 hour in assay buffer (50 mM HEPES, 40 mM NaCl, 1 mM MgCl2×6H2O, 30 μg/mL Saponin, pH 7.4 at RT) containing 0.025 μg/μL of membrane protein (prepared from the cell line described above), 10 μM GDP and 0.55 nCi/μL GTPγS^35 in a final volume of 60 μL. The reaction was started by the addition of compounds (GABA was always included as a positive control), start concentration 100 μM dilution factor 3. The reaction was terminated and membranes collected by addition of ice-cold wash buffer (50 mM Tris-HCl, 5 mM MgCl2×6H2O, 50 mM NaCl, pH 7.4 at 4° C.) followed by rapid filtration under vacuum through a MultiScreen HTS 384 FB filter plate. Repeated washing of the filters with ice-cold wash buffer washed the unbound radioligand away. The filter plates were dried for 1½-2 hours at 50° C., then 8 μL scintillation liquid was added per well followed by incubation at RT for at least 20 minutes before bound radioactivity was determined using a β-Liquid Scintillation Counter (1450 Microbeta Trilux, Wallac, Finland)
100% activation (max) is calculated as the mean value for wells containing 1 mM GABA. […]

Experiment [2] deals with T2, GABAB(1A,2) receptor heterodimer (Homo sapiens, UniProt O75899+Q9UBS5).
T2 construct: expressed in transfected cells; membrane preparation
The experiment in a line: GTPγS35 radioligand filtration-binding assay for determination of PAM potency. The format is biochemical. To be noted: membranes of CHO-K1 cells expressing GABABR1a/GABABR2; GABA dose-response with 10, 1, 0.1 and 0.01 μM PAM; concentration reducing GABA's EC50 by 50%; read-out: Mean (EC50 derived) PAM EC50. The procedure:
The effect of GABA in an automated GTPγS^35 radioligand filtration-binding assay in CHO cells expressing the GABAB(1A,2) receptor heterodimer was studied in the presence or absence of the positive allosteric modulator test compounds.
as §1, §2, §3
GABABR1a and GABABR2 were cloned from human brain cDNA and subcloned into pCI-Neo (Promega) and pALTER-1 (Promega), respectively.
In order to optimise the Kozak consensus sequence of GABABR2, in situ mutagenesis was performed using the Altered Sites Mutagenesis kit according to manufacturer's instruction (Promega) with the following primer, 5′-[…]-3′. The optimised GABABR2 was then restricted from pALTER-1 with Xho I+Kpn I and subcloned into the mammalian expression vector pcDNA3.1 (−)/Zeo (Invitrogen) to produce the final construct, pcDNA3.1 (−)/Zeo-GABABR2.
For generation of stable cell lines, CHO-K1 cells were grown in Nut mix F-12 (Ham) media supplemented with 10% FBS, 100 U/ml Penicillin and 100 μg/ml Streptomycin at 37° C. in a humidified CO2-incubator. The cells were detached with 1 mM EDTA in PBS and 1 million cells were seeded in 100 mm petri dishes. After 24 hours the culture media was replaced with OptiMEM and incubated for 1 hour in a CO2-incubator.
For generation of a cell line expressing the GABABR1a/GABABR2 heterodimer, GABABR1a plasmid DNA ([…]) GABABR2 plasmid DNA (4 μg) and lipofectamine (24 μl) were mixed in 5 ml OptiMEM and incubated for 45 minutes at room temperature. […] After expansion, the GABAB receptor functional response was tested by measuring the GABAB receptor dependent release of intracellular calcium in a fluorescence imaging plate reader (FLIPR). […]

T1 sequence (Q9UBS5 15-961 limits assumed): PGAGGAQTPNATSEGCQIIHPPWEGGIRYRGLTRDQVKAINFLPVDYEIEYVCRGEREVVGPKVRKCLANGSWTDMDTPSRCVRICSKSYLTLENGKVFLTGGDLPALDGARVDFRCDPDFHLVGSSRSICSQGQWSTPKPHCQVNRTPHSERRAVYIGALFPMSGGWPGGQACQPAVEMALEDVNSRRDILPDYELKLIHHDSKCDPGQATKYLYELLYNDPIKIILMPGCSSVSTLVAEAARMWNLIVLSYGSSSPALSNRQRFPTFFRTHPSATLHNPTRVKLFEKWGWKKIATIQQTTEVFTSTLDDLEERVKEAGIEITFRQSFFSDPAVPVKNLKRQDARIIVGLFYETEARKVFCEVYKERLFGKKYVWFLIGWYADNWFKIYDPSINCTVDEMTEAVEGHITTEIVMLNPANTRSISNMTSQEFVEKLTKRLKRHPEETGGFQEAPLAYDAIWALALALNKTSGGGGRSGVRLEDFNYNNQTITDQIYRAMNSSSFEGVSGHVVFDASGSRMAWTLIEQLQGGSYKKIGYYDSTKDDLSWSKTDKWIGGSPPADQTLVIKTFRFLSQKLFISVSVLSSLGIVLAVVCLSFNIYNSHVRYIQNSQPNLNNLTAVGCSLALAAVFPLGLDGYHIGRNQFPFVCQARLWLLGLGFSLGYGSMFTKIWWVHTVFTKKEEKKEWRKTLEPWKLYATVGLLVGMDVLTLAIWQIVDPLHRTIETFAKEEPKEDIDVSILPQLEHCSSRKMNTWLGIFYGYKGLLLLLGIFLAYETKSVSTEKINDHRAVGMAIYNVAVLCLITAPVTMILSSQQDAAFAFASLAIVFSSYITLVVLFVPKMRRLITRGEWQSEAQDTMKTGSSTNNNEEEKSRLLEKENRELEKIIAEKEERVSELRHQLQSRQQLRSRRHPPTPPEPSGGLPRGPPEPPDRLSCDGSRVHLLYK
T1 sequence (O75899 42-941): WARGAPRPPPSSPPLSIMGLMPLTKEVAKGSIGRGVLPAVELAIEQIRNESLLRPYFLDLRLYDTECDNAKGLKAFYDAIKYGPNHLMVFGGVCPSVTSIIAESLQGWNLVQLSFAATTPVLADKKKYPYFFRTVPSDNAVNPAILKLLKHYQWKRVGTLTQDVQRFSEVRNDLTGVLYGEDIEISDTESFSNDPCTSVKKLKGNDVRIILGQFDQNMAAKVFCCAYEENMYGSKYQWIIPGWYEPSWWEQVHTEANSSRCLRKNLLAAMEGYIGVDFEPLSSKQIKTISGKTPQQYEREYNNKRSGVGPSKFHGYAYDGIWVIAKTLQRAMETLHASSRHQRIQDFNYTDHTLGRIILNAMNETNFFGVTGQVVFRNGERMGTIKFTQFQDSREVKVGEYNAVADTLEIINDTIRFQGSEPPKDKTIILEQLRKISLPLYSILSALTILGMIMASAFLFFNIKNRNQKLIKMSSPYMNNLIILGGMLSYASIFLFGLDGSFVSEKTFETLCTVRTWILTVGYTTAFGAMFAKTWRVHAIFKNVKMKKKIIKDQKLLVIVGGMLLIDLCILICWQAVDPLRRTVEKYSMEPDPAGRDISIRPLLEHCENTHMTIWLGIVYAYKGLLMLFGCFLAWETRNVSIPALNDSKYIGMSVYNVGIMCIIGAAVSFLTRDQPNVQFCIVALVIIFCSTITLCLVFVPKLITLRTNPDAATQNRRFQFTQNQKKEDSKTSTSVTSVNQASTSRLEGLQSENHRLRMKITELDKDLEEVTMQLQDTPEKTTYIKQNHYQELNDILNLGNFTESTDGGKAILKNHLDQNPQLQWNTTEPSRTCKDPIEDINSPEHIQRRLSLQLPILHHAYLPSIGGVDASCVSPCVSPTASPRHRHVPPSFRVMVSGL
T2 sequence (Q9UBS5 15-961 limits assumed): as the sequence (Q9UBS5 15-961 limits assumed) above
T2 sequence (O75899 42-941): as the sequence (O75899 42-941) above

Take `Cc1nc2ccc(N3CCCCC3)cc2c(-c2ccc(F)cc2)c1C(C)Oc1ccc(Cl)cc1` (stereo not shown) [Example 4, 3-[1-(4-chlorophenoxy)ethyl]-4-(4-fluorophenyl)-2-methyl-6-piperidin-1-ylquinoline]: the EC50 in experiment [1] worked out at 1 µM; in experiment [2], 24 µM.

For `Cc1nc2ccc(N3CCCCC3)cc2c(-c2ccc(F)cc2)c1C(=O)OC(C)(C)C` [Example 22, tert-butyl 4-(4-fluorophenyl)-2-methyl-6-piperidin-1-ylquinoline-3-carboxylate], the EC50 in experiment [1] worked out at 1.3 µM; in experiment [2], 18 µM.
